The values that follow come from patent US20210283163A1, “COMPOSITIONS AND METHODS FOR THE TREATMENT OF ACUTE AND CHRONIC PRURITIS” (Duke University, priority 2018, published 2021).

What all share (assay type): cell-based
One series has as its target T1, TRPV2 (Mus musculus, UniProt Q9WTR1).
T1 construct: expressed in transfected cells; host or cells: CHO cells (ATCC CRL-9096), plasmid pcDNA3.1-mTrpv2, a gift from Korea University
T1 sequence (Q9WTR1 1-756): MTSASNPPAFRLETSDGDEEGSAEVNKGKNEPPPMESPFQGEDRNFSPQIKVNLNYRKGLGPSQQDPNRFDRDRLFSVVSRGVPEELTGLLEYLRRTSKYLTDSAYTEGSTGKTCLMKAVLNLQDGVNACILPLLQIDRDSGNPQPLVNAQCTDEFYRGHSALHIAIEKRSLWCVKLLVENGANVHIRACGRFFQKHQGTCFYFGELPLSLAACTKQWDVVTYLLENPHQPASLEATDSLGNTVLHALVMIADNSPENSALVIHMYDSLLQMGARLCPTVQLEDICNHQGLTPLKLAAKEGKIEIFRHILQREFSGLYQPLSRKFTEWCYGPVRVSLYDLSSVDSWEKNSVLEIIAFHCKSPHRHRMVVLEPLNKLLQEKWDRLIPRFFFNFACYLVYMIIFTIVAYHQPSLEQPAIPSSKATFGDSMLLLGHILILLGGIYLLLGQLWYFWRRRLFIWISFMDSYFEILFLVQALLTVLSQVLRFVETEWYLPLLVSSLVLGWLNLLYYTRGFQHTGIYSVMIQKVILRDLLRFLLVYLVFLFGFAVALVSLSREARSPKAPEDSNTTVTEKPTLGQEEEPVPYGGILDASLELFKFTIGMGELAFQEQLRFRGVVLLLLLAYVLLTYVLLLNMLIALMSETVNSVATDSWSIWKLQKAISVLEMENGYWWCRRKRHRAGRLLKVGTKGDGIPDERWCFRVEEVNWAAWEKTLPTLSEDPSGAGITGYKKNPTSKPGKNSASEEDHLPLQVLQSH
The experiment in a line: Whole-cell patch clamp in CHO cells transfected with mouse Trpv2 cDNA. Conditions: miR-711 10 μM; cannabidiol 100 μM. As to the method:
(§1) Constructs. The cDNAs of mouse pcDNA3.1-Trpa1, pcDNA3.1-Trpv1, pcDNA3.1-Trpv2, pcDNA3.1-Trpv3, and pcDNA3.1-Trpv4 were kindly provided Dr. Sun Work Hwang from Korea University. Mouse Trpa1 cDNA was subcloned into pCGN-HA backbone (Addgene) using In-Fusion HD Cloning Kit (Clontech Laboratories, CA). Q5 Site-Directed Mutagenesis Kit was used to generate mTrpa1 mutant (M1-M13) based on pCGN-mTrpa1.
Cell Culture and Transfection. CD4^+ Myla cell line was cultured in RPMI 1640 media (GIBCO), supplemented with 2 mM Glutamine (GIBCO), 100 U/mL IL-2 (Sigma), 100 U/mL IL-4 (Sigma), and 10% human AB serum (Sigma). HuT 102 cell line was cultured in RPMI 1640 supplemented with pyruvate, HEPES, and 10% (v/v) fetal bovine serum (HyClone). HEK293-hTRPA1 stable cell line was cultured in MEM (GIBCO) containing 2 mM Glutamine, 4 μg/mL Blasticidin, 10% FBS (v/v). B16 and CHO cells were cultured in high glucose (4.5 g/L) Dulbecco's Modified Eagle's Medium (GIBCO) containing 10% (v/v) fetal bovine serum (GIBCO). Culture media were supplemented with 50 units/mL of penicillin and 50 μg/mL streptomycin, and cultures were maintained with 5% CO2 in 37° C. incubator. Transfection (2 μg cDNA) was performed with Lipofectamine™ 2000 Reagent (Invitrogen) at 80% confluency and the transfected cells were cultured in the same media for 48 hr before electrophysiological and biochemical studies. […]
For orientation: The patch-clamp technique gives a direct electrical read-out from membranes.

A further series concerns calcium channels. Nature of the series: Calcium current recording in mouse DRG neurons. Conditions: 10 μM, 1 min. As for the experimental part: To test the effects of miR-711 on calcium channels, calcium currents were recorded in mouse DRG neurons (Andrade et al., Nat. Neurosci. 2010, 13, 1249-1256). Calcium current was evoked by a 40-ms step depolarization to −10 mV from the holding potential of −80 mV, using i) external solution (mM): 135 mM TEA-C1, 1 mM CaCl2, 10 mM HEPES, 4 mM MgCl2 and 0.1 μM TTX, adjusted to a pH of 7.4 with TEA-OH, and ii) the pipette solution: 126 mM CsCl, 5 mM Mg-ATP, 10 mM EGTA and 10 mM HEPES, adjusted to a pH of 7.3 with CsOH.

Series [1] has as its target T2, mTRPA1 mutants (M1-M13) (Mus musculus, UniProt Q8BLA8, P937A).
T2 construct: HA; expressed in transfected cells; host or cells: CHO cells (ATCC CRL-9096), transient transfection
Nature of the series: Whole-cell patch clamp in CHO cells transfected with mutant mTrpa1 cDNAs (M1-M13). Conditions: M11, single residue mutation of mP937. As for the experimental part:
as §1
(§2) Cell Culture and Transfection. CD4^+ Myla cell line was cultured in RPMI 1640 media (GIBCO), supplemented with 2 mM Glutamine (GIBCO), 100 U/mL IL-2 (Sigma), 100 U/mL IL-4 (Sigma), and 10% human AB serum (Sigma). HuT 102 cell line was cultured in RPMI 1640 supplemented with pyruvate, HEPES, and 10% (v/v) fetal bovine serum (HyClone). HEK293-hTRPA1 stable cell line was cultured in MEM (GIBCO) containing 2 mM Glutamine, 4 μg/mL Blasticidin, 10% FBS (v/v). B16 and CHO cells were cultured in high glucose (4.5 g/L) Dulbecco's Modified Eagle's Medium (GIBCO) containing 10% (v/v) fetal bovine serum (GIBCO). Culture media were supplemented with 50 units/mL of penicillin and 50 μg/mL streptomycin, and cultures were maintained with 5% CO2 in 37° C. incubator. Transfection (2 μg cDNA) was performed with Lipofectamine™ 2000 Reagent (Invitrogen) at 80% confluency and the transfected cells were cultured in the same media for 48 hr before electrophysiological and biochemical studies.
(§3) Whole-Cell Patch Clamp Recordings in HEK293 Cells, CHO Cells, and DRG Neurons. Whole-cell patch clamp recordings were performed at room temperature using an Axopatch-200B amplifier (Axon Instruments) with a Digidata 1440B (Axon Instruments). In this study, we only examined small-diameter mouse DRG neurons (<25 μM) and small-diameter human DRG neurons (<55 μM). The patch pipettes were pulled from borosilicate capillaries (World Precision Instruments) using a P-97 Flaming/Brown micropipette puller (Sutter Instrument). Pipette resistance was 4-6 MΩ for whole-cell and outside-out recording. For inward current recordings in mouse and human DRG neurons, HEK293 cells, and CHO cells, the internal solution contains (in mM): 140 CsCl, 10 EGTA, 10 HEPES, and 2 Mg-ATP, adjusted to pH 7.3 with CsOH. Whole cell recordings were performed in an extracellular solution that contains (in mM): 140 NaCl, 5 KCl, 2 MgCl2, 10 HEPES, and 10 glucose, adjusted to pH 7.4 with NaOH and osmolarity to 300-310 mOsm. […] Action potential recordings were performed in small-diameter DRG neurons, with the following solutions: i) internal pipette solution contains: 126 mM K-gluconate, 10 mM NaCl, 1 mM MgCl2, 10 mM EGTA, 10 mM HEPES and 2 mM Na-ATP, adjusted to pH 7.4 with KOH and osmolarity to 295-300 mOsm), and ii) extracellular solution contains: 140 mM NaCl, 5 mM KCl, 2 mM MgCl2, 2 mM CaCl2, 10 mM HEPES, 10 mM glucose, adjusted to pH 7.4 with KOH.

Series [2] concerns the target T3, mTRPA1 mutants (M1-M13) (Mus musculus, UniProt Q8BLA8, L939A/P937A/Y936A).
T3 construct: HA; expressed in transfected cells; host or cells: CHO cells (ATCC CRL-9096), transient transfection
The description is as above. Conditions: M13, triple mutations (Y936, P937, and L939). As to the method: as §1, §2, §3

T3 sequence (Q8BLA8 whole entry Y936A/P937A/L939A): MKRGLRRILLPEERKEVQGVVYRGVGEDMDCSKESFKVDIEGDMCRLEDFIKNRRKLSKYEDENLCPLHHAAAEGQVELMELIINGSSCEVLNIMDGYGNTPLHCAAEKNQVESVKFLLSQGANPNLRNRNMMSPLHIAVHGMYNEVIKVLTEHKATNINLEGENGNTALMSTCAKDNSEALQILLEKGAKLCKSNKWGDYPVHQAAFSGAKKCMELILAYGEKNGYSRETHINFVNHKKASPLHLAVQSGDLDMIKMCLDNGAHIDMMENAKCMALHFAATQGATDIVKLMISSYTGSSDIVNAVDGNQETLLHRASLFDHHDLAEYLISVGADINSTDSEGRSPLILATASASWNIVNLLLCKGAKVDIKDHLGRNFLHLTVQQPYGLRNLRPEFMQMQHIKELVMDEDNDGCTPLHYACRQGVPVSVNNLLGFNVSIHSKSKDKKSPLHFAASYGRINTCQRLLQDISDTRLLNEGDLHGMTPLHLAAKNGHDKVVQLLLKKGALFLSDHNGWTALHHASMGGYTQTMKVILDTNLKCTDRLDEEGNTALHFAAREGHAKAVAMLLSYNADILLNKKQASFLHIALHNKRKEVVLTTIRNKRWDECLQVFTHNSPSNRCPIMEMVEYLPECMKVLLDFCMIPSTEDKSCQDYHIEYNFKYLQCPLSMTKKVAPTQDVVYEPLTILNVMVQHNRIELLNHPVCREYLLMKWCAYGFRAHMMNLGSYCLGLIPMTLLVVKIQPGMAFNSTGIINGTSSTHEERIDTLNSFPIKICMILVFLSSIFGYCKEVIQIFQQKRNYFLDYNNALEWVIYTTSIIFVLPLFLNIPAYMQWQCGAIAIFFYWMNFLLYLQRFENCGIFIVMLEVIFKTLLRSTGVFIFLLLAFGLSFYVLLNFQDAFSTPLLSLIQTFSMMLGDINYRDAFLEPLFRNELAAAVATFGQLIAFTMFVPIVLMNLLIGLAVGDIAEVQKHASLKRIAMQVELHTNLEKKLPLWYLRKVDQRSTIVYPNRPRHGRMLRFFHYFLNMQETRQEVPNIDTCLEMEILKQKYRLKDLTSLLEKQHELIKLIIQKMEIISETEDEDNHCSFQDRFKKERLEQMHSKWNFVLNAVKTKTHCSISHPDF
T2 sequence (Q8BLA8 whole entry P937A): as the sequence (Q8BLA8 whole entry Y936A/P937A/L939A) above, with A936Y, A939L counted along it

Consider “miR-711: mmu-miR-711: gggacccggggagagauguaag (SEQ ID NO: 5) (GGGACCCGGGGAGAGAUGUAAG; chemistry not given here)”, for which the inward currents entry with TRPV2 was “failed to trigger inward currents”. Moreover, the “calcium currents in DRG neurons” value in the series on calcium channels is recorded as “did not alter calcium currents”. Also, the “evoked currents in mutant” value with mTRPA1 mutants (M1-M13) [1] is reported as “markedly reduced”. Besides, in the series with mTRPA1 mutants (M1-M13) [2], the current in mutant result is “further reduction”.
